Test results from patent publication US20250270227A1, “CAMPTOTHECIN DERIVATIVE, AND PHARMACEUTICAL COMPOSITION AND USE THEREOF” (SIMCERE ZAIMING PHARMACEUTICAL CO., LTD., priority 2021, published 2025).
Where two headings read alike, the source gives them in different places.

What was measured:
Assay in all cases: Test 1 of anti-proliferative activity against tumor cells (Cell-Titer Glo)
Type in all cases: cell-based
[1] = test system: Human colorectal cancer cell line HCT116
Procedure: (§1) Cell culture: HCT116 cells and SKBR3 cells were cultured in McCoy's 5a medium containing 10% fetal bovine serum+1% penicillin-streptomycin at 37° C. and 5% CO2, and OVCAR3 cells were cultured in 1640 medium containing 20% fetal bovine serum+2 μg/mL bovine insulin+1% penicillin-streptomycin at 37° C. and 5% CO2. Cells in logarithmic growth phase were suitable for the experiment.
(§2) Detection of cell proliferation activity: The inhibitory activity of the compounds on the proliferation of the three cell lines HCT116, SKBR3 and OVCAR3 was detected using Cell-Titer Glo reagent. HCT116 cells (1500 cells per well), SKBR3 cells (3000 cells per well) and OVCAR3 cells (5000 cells per well) were seeded in 96-well plates and cultured at 37° C. and 5% CO2 for 24 h. The solution of the compound to be tested (the compound was dissolved in DMSO with the concentration of the compound being 1 mM, then the compound was diluted to 3 μM with DMSO, with 3-fold dilution and a total of 9 concentrations, and 10 μL of the prepared compound solution was transferred to a 96-well plate with the final concentration of 0-300 nM) was added. The cells were placed at 37° C. and 5% CO2 for further culture. HCT116 cells were cultured for 3 days, and SKBR3 cells and OVCAR3 cells were cultured for 5 days. The cell viability was detected by adding Cell-Titer Glo reagent.
(§3) Additionally, a negative control group and a positive control group were provided as Bottom and Top, respectively. In the negative control group, the cells were not added, only the same volume of medium was added, and other operations were consistent with those in the experimental group; in the positive control group, the test compound was not added, only the same volume of DMSO was added, and other operations were consistent with those in the experimental group.
(§4) Data analysis: The % compound inhibition was calculated, and fitting was performed to obtain IC50 of the compound.
(§5) % Compound inhibition=1−100%*(Signal−Bottom)/(Top−Bottom).
(§6) Signal represents the signal value of the experimental group, Bottom represents the average signal value of the negative control group, and Top represents the average signal value of the positive control group.

[2] = test system: human breast cancer cell line SKBR3
Procedure: as §1, §2, §3, §4, §5, §6

[3] = test system: human ovarian cancer cell line OVCAR3
Procedure: as §1, §2, §3, §4, §5, §6

[4] = Homo sapiens, HCT-116, 72 h, read-out: HCT116 Anti-proliferative activity IC50 (nM), HCT116 cells, cultured 3 days with compound, Cell-Titer Glo
[5] = Homo sapiens, SK-BR-3, 120 h, read-out: SKBR3 Anti-proliferative activity IC50 (nM), SKBR3 cells, cultured 5 days with compound, Cell-Titer Glo
[6] = Homo sapiens, OVCAR-3, 120 h, read-out: OVCAR3 Anti-proliferative activity IC50 (nM)

SMILES | IC50 [1, 4] [nM] | IC50 [2, 5] [nM] | IC50 [3, 6] [nM] | further results
CC[C@@]1(O)C(=O)OCc2c1cc1n(c2=O)Cc2c-1nc1cc(F)c(Cl)c(F)c1c2CNC(=O)C(O)C1CC1 (single isomer, unassigned) [Compound 23-P2] |  |  |  | IC50 ([1]; HCT116 cells, cultured 3 days with compound, Cell-Titer Glo, read-out: HCT116 Anti-proliferative activity IC50): 9.5 nM; IC50 ([2]; SKBR3 cells, cultured 5 days with compound, Cell-Titer Glo, read-out: SKBR3 Anti-proliferative activity IC50): 4.5 nM; IC50 ([3]; OVCAR3 cells, cultured 5 days with compound, Cell-Titer Glo, read-out: OVCAR3 Anti-proliferative activity IC50): 1.5 nM
CC[C@@]1(O)C(=O)OCc2c1cc1n(c2=O)Cc2c-1nc1cc(Cl)c(C)cc1c2CNC(=O)CO [Compound 6, (S)-N-((8-chloro-4-ethyl-4-hydroxy-9-methyl-3,14-dioxo-3,4, 12,14-tetrahydro-1H-pyrano[3′,4′:6,7]indolizino[1,2-b]quinolin-11-yl)methyl)-2-hydroxyacetamide] | 12.6 | 4.8 | 2.1 | 
CC[C@@]1(O)C(=O)OCc2c1cc1n(c2=O)Cc2c-1nc1ccc3c(c1c2CNC(=O)C(O)C1CC1)CCC3 (stereo partly drawn) [Compound 13, 2-cyclopropyl-N-(((S)-8-ethyl-8-hydroxy-9,12-dioxo-2,3,8,9, 12,14-hexahydro-1H,11H-cyclopentadieno[f]pyrano[3′,4′:6,7]indolizino [1,2-b]quinolin-15-yl)methyl)-2-hydroxyacetamide] | 8 |  | 0.7 | 
CC[C@@]1(O)C(=O)OCc2c1cc1n(c2=O)Cc2c-1nc1cc(F)c(C)cc1c2CNC1(CO)CC1 [Compound 19, (S)-4-ethyl-8-fluoro-4-hydroxy-11-(((1-(hydroxymethyl)cyclopropyl)amino)methyl)-9-methyl-1,12-dihydro-14H-pyrano[3′,4′:6,7]indolizino[1,2-b]quinoline-3,14(4H)-dione] | 5 | 4 |  | 
CC[C@@]1(O)C(=O)OCc2c1cc1n(c2=O)Cc2c-1nc1ccc3occc3c1c2CNC(=O)CO [Compound 20, (S)-N-((8-ethyl-8-hydroxy-9,12-dioxo-8,9,12,14-tetrahydro-11H-furo[3,2-f]pyrano[3′,4′:6,7]indolizino[1,2-b]quinolin-15-yl)methyl)-2-hydroxyacetamide] | 20.7 | 10.5 |  | 
CC[C@@]1(O)C(=O)OCc2c1cc1n(c2=O)Cc2c-1nc1cc(F)c(Cl)c(F)c1c2CNC(=O)CO [Compound 21, (S)-N-((9-chloro-4-ethyl-8,10-difluoro-4-hydroxy-3,14-dioxo-3,4,12,14-tetrahydro-1H-pyrano[3′,4′:6,7]indolizino[1,2-b]quinolin-11-yl)methyl)-2-hydroxyacetamide] | 7.1 | 4 | 1.7 | 
CC[C@@]1(O)C(=O)OCc2c1cc1n(c2=O)Cc2c-1nc1cc(F)c(Cl)c(F)c1c2CNC(=O)C(C)(C)O [Compound 22, (S)-N-((9-chloro-4-ethyl-8,10-difluoro-4-hydroxy-3,14-dioxo-3,4,12,14-tetrahydro-1H-pyrano[3′,4′:6,7]indolizino[1,2-b]quinolin-11-yl)methyl)-2-hydroxy-2-methylpropanamide] | 4 | 3.5 | 1.4 | 
CC[C@@]1(O)C(=O)OCc2c1cc1n(c2=O)Cc2c-1nc1cc(F)c(Cl)c(F)c1c2CNC(=O)C(O)C1CC1 (stereo partly drawn) [Compound 23, N-(((S)-9-chloro-4-ethyl-8,10-difluoro-4-hydroxy-3,14-dioxo-3,4,12,14-tetrahydro-1H-pyrano[3′,4′:6,7]indolizino[1,2-b]quinolin-11-yl)methyl)-2-cyclopropyl-2-hydroxyacetamide] |  |  | 3.9 | IC50 ([1]; read-out: HCT116 Anti-proliferative activity IC50, HCT116 cells, cultured 3 days with compound, Cell-Titer Glo): 5.6 nM; IC50 ([2]; read-out: SKBR3 Anti-proliferative activity IC50, SKBR3 cells, cultured 5 days with compound, Cell-Titer Glo): 5.3 nM
CC[C@@]1(O)C(=O)OCc2c1cc1n(c2=O)Cc2c-1nc1cc(F)c(Cl)c(F)c1c2CNC(=O)C(O)C1CC1 (stereo partly drawn) [Compound 23-P1, N-(((S)-9-chloro-4-ethyl-8,10-difluoro-4-hydroxy-3,14-dioxo-3,4,12,14-tetrahydro-1H-pyrano[3′,4′:6,7]indolizino[1,2-b]quinolin-11-yl)methyl)-2-cyclopropyl-2-hydroxyacetamide] |  |  |  | IC50 ([1]; Homo sapiens, HCT-116, 72 h, HCT116 cells, cultured 3 days with compound, Cell-Titer Glo, read-out: HCT116 Anti-proliferative activity IC50): 7.9 nM; IC50 ([2]; Homo sapiens, SK-BR-3, 120 h, SKBR3 cells, cultured 5 days with compound, Cell-Titer Glo, read-out: SKBR3 Anti-proliferative activity IC50): 5.8 nM; IC50 ([3]; Homo sapiens, OVCAR-3, 120 h, OVCAR3 cells, cultured 5 days with compound, Cell-Titer Glo, read-out: OVCAR3 Anti-proliferative activity IC50): 1.9 nM
CC[C@@]1(O)C(=O)OCc2c1cc1n(c2=O)Cc2c-1nc1cc(F)c(Cl)c(F)c1c2CNC(=O)[C@@H](C)O [Compound 25, (R)-N-(((S)-9-chloro-4-ethyl-8,10-difluoro-4-hydroxy-3,14-dioxo-3,4,12,14-tetrahydro-1H-pyrano[3′,4′:6,7]indolizino[1,2-b]quinolin-11-yl)methyl)-2-hydroxypropanamide] | 7.9 | 3.7 | 2 | 
CC[C@@]1(O)C(=O)OCc2c1cc1n(c2=O)Cc2c-1nc1cc(F)c(Cl)c(F)c1c2CNC(=O)[C@H](C)O [Compound 26, (S)-N-(((S)-9-chloro-4-ethyl-8,10-difluoro-4-hydroxy-3,14-dioxo-3,4,12,14-tetrahydro-1H-pyrano[3′,4′:6,7]indolizino[1,2-b]quinolin-11-yl)methyl)-2-hydroxypropanamide] | 9.5 | 4.2 | 1.6 | 
CC[C@@]1(O)C(=O)OCc2c1cc1n(c2=O)Cc2c-1nc1cc3c(c(Cl)c1c2CNC(=O)C(O)C1CC1)OCO3 (stereo partly drawn) [Compound 30, N-(((S)-15-chloro-7-ethyl-7-hydroxy-8,11-dioxo-7,8,11,13-tetrahydro-10H-[1,3]dioxolo[4,5-g]pyrano[3′,4′:6,7]indolizino[1,2-b]quinolin-14-yl)methyl)-2-cyclopropyl-2-hydroxyacetamide] | 4.6 |  | 0.4 | 
CC[C@@]1(O)C(=O)OCc2c1cc1n(c2=O)Cc2c-1nc1cc(F)c(Cl)c(F)c1c2CNC(=O)CCO [Compound 32, (S)-N-((9-chloro-4-ethyl-8,10-difluoro-4-hydroxy-3,14-dioxo-3,4,12,14-tetrahydro-1H-pyrano[3′,4′:6,7]indolizino[1,2-b]quinolin-11-yl)methyl)-3-hydroxypropanamide] | 9.8 |  | 1 | 
CC[C@@]1(O)C(=O)OCc2c1cc1n(c2=O)Cc2c-1nc1cc(Cl)c3c(c1c2CNC(=O)CO)CCC3 [Compound 33, (S)-N-((4-chloro-8-ethyl-8-hydroxy-9,12-dioxo-2,3,8,9,12,14-hexahydro-1H,11H-cyclopentadieno[f]pyrano[3′,4′:6,7]indolizino[1,2-b]quinolin-15-yl)methyl)-2-hydroxyacetamide] | 5.5 |  | 0.8 | 
CC[C@@]1(O)C(=O)OCc2c1cc1n(c2=O)Cc2c-1nc1cc(Cl)c3c(c1c2CNC(=O)C(O)C1CC1)CCC3 (stereo partly drawn) [Compound 34, N-(((S)-4-chloro-8-ethyl-8-hydroxy-9,12-dioxo-2,3,8,9,12,14-hexahydro-1H,11H-cyclopentadieno[f]pyrano[3′,4′:6,7]indolizino[1,2-b]quinolin-15-yl)methyl)-2-cyclopropyl-2-hydroxyacetamide] | 2.3 |  | 0.6 | 
CC[C@@]1(O)C(=O)OCc2c1cc1n(c2=O)Cc2c-1nc1cc3c(c(F)c1c2CNC(=O)CO)OCO3 [Compound 38, (S)-N-((7-ethyl-15-fluoro-7-hydroxy-8,11-dioxo-7,8,11,13-tetrahydro-10H-[1,3]dioxolo[4,5-g]pyrano[3′,4′:6,7]indolizino[1,2-b]quinolin-14-yl)methyl)-2-hydroxyacetamide] |  |  | 2.9 | 
CC[C@@]1(O)C(=O)OCc2c1cc1n(c2=O)Cc2c-1nc1cc3c(c(F)c1c2CNC(=O)CN)OCO3 [Compound 40, (S)-2-amino-N-((7-ethyl-15-fluoro-7-hydroxy-8,11-dioxo-7,8,11,13-tetrahydro-10H-[1,3]dioxolo[4,5-g]pyrano[3′,4′:6,7]indolizino[1,2-b]quinolin-14-yl)methyl)acetamide] |  |  | 11.3 | 
